Patent US8008425B2, “Thiophene compound having sulfonyl group and process for producing the same” (Nissan Chemical Industries, Ltd., priority 2005, dated 2011)

Experiment: Solubility test
Assay type: physicochemical
Conditions: 25° C., ultrasonic waves, 5 mg, solvent added 50 μL by 50 μL
Procedure: The solubility of each of the sulfonylthiophene compounds synthesized in Examples 21 and 22 was determined under ultrasonic waves at 25° C. by adding, to aliquots (5 mg) of the sulfonylthiophene compound, tetrahydrofuran (THF), toluene, N,N-dimethylformamide (DMF), chloroform, ethyl acetate and ethanol 50 μL by 50 μL, respectively, until they were dissolved. The level of solubility was ranked in accordance with the following standards. • ⊚: Dissolved with 50 μL (concentration: 10%) • ◯: Dissolved with 100 μL (concentration: 5%) • Δ: Dissolved with 200 μL (concentration: 2.5%) • X: Not dissolved even by the addition of 500 μL (concentration: 1% or lower)

SMILES	level of solubility (Chloroform)	level of solubility (DMF)	level of solubility (Ethanol)	level of solubility (Ethyl acetate)	level of solubility (THF)	level of solubility (Toluene)
CCCCCCCCS(=O)(=O)c1c(-c2ccc(N(c3ccccc3)c3ccccc3)cc2)sc(-c2ccc(N(c3ccccc3)c3ccccc3)cc2)c1S(=O)(=O)CCCCCCCC [Example 21, 4,4′-{3,4-bis(octane-1-sulfonyl)-thiophene-2,5-diyl}bis(N,N-diphenylaniline)]	⊚ (Dissolved with 50 μL (concentration: 10%))	Δ (Dissolved with 200 μL (concentration: 2.5%))	X (Not dissolved even by the addition of 500 μL (concentration: 1% or lower))	◯ (Dissolved with 100 μL (concentration: 5%))	◯ (Dissolved with 100 μL (concentration: 5%))	◯ (Dissolved with 100 μL (concentration: 5%))
CCCCCCCCS(=O)(=O)c1cc(-c2ccc(N(c3ccccc3)c3ccccc3)cc2)sc1-c1ccc(N(c2ccccc2)c2ccccc2)cc1 [Example 22, 4,4′-{3-(octane-1-sulfonyl)-thiophene-2,5-diyl}bis(N,N-diphenylaniline)]	⊚ (Dissolved with 50 μL (concentration: 10%))	⊚ (Dissolved with 50 μL (concentration: 10%))	X (Not dissolved even by the addition of 500 μL (concentration: 1% or lower))	⊚ (Dissolved with 50 μL (concentration: 10%))	⊚ (Dissolved with 50 μL (concentration: 10%))	⊚ (Dissolved with 50 μL (concentration: 10%))
